{
  "source": "patent US6451831B1",
  "about": "“Agent for hypoalbuminaemia” (Nippon Zoki Pharmaceutical Co., Ltd., priority 2001, dated 2002)",
  "key": {"[1]": {"tested_on": "patients suffering from hypoalbuminaemia (serum albumin value less than 3.0 g/dL)", "experiment": "Clinical test: serum albumin values in patients suffering from hypoalbuminaemia", "assay_type": "in vivo, human", "protocol": "The compound of the present invention (Compound 21 ) was administered to 6 patients suffering from hypoalbuminaemia (serum albumin value was less than 3.0 g/dL) at the dose of 200 mg/day (dosage for only Patient 1 was 400 mg/day). Serum albumin values were compared between before and after administration for 24 weeks (after 16 weeks in case of only Patient 2). […] In another case of tested subjects showing a normal value of serum albumin, any change of the value was not noted by the administration of the compounds of the present invention."}, "patients": {"tested_on": "patients", "experiment": "Clinical tests: toxicity and side effects", "assay_type": "in vivo, human", "settings": "clinically confirmed"}},
  "data": [
    {"smiles": "CN1C(=O)NC(=O)C1O", "note": "(stereo not drawn) [Compound 21, 5-Hydroxy-1-methylhydantoin]", "values": [
      {"measurement": "Effect on serum albumin values (in words)", "setting": "[1]; 6 patients with hypoalbuminaemia, 200 mg/day (Patient 1: 400 mg/day), 24 weeks (Patient 2: 16 weeks), paired t-test", "value": "significantly increased"},
      {"measurement": "Serum albumin value After Administration for 24 weeks", "setting": "[1]; Patient 1, 400 mg/day, 24 weeks, before administration 1.7 g/dL", "value": 2.1, "unit": "g/dL"},
      {"measurement": "Serum albumin value After Administration for 24 weeks", "setting": "[1]; Patient 2, 200 mg/day, after 16 weeks according to text, before administration 2.0 g/dL", "value": 2.3, "unit": "g/dL"},
      {"measurement": "Serum albumin value After Administration for 24 weeks", "setting": "[1]; Patient 3, 200 mg/day, 24 weeks, before administration 2.3 g/dL", "value": 3.4, "unit": "g/dL"},
      {"measurement": "Serum albumin value After Administration for 24 weeks", "setting": "[1]; Patient 4, 200 mg/day, 24 weeks, before administration 2.4 g/dL", "value": 2.7, "unit": "g/dL"},
      {"measurement": "Serum albumin value After Administration for 24 weeks", "setting": "[1]; Patient 5, 200 mg/day, 24 weeks, before administration 2.5 g/dL", "value": 3.2, "unit": "g/dL"},
      {"measurement": "Serum albumin value After Administration for 24 weeks", "setting": "[1]; Patient 6, 200 mg/day, 24 weeks, before administration 2.7 g/dL", "value": 3.0, "unit": "g/dL"},
      {"measurement": "Serum albumin value After Administration for 24 weeks, Mean Value", "setting": "[1]; mean of 6 patients, before administration 2.3 ± 0.2 g/dL, p < 0.01, paired t-test", "value": "2.8 ± 0.2", "unit": "g/dL"},
      {"measurement": "Toxicity and side effects (in words)", "setting": "patients", "value": "low toxicity and lower side effects"}
    ]}
  ]
}
